Where two headings read alike, the source gives them in different places.
What was measured:
[1] = test system: pyrophosphorylases in Escherichia coli BL21(DE3)pLysSpERJ-1 raw extract; assay: NUSSA screening of pyrophosphorylases in E. coli raw extract; assay type: biochemical; settings: 20 μg/mL raw extract
Method: (§1) The total volume was 200 μL.
2) Example: Use of NUSSA for screening pyrophoshorylases in two different enzyme sources: a) Escherichia coli BL21(DE3)pLysSpERJ-1
(§2) For using the test, the PPIPFK has to be purified. As a simple and easily available enzyme source, potatoes were selected (Solanum tuberosum L.) . The purification was carried out according to the method described by van Schaftingen et al., 1982 in Eur. J. Biochem., Vol. 129, pp. 191-195. The enzyme (PPIPFK) was stored in 25% glycerin at -20° C.
(§3) Escherichia Coli BL21(DE3)pLysSpERJ-1 was cultured and broken up as described above. The resulting raw homogenate was centrifuged at 10,000 rpm for 2 min, and at 20° C., then used in the enzyme test (21.02 mg/mL). The rice was broken up according to Elling, 1993, German Patent DE 4,221,595 Cl, at 10,000 rpm, 10 min, 20° C., and it was used as a raw extract (4.26 mg/mL) in the enzyme screening. The substrates tested were: […]
(§4) a) Nucleoside triphosphate: ATP, CTP, GTP, UTP, dTTP, each at 1 mM in the test with glucose-1-phosphate (2.5 mM) b) Nucleoside triphosphate UTP (1 mM)
(§5) Sugar-1-phosphate, each at 2.5 mM in the test

[2] = biological target: T1, GDP-mannose pyrophosphorylase (Salmonella typhimurium, UniProt P26404); assay type: biochemical, Salmonella enterica, group B; settings: for kmax value: GTP varied at 0.08 mM M-1-P, M-1-P varied at 2 mM GTP
T1 construct: made in house; host or cells: Escherichia coli BL21(DE3)pLysS with pERJ-1 (pT7-6/rfbM)
Method: (§6) GTP was used at concentrations of 0.01-10 mM (FIG. 7).
b) Nucleoside triphosphate: GTP
Sugar-1-phosphates: Glucose-1-P, N-acetylglucosamine-1-P-, glucosamine-1-P, galactose-1-P, galactosamine-1-P, N-acetylgalactosamine-1-P, glucuronic acid-1-P, galacturonic acid-1-P, xylose-1-P, mannose-1-P
as §1

[3] = biological target: Salmonella enterica group B (formerly Salmonella typhimurium LT2) GDP-mannose pyrophosphorylase (rfb M, EC 2.7.7.13), recombinant from E. coli BL21(DE3)pLysSpERJ-1 (Salmonella typhimurium, UniProt P26404); assay: biochemical
From the text: (§7) In the manner described below, it is possible to determine, by the use of the substrates (sugar-1-phosphates or sugar in the case of neuraminic acid) and nucleoside triphosphates any pyrophosphorylase activity which presents an activity in the test mixture of≧0.2 mU/mL.
The enzyme test (Nucleotidyl transferase substrate screening assay ‘NUSSA’) is based on the fact that in the nucleotidyl transferase reaction (EC 2.7-7), pyrophosphate is produced with a pyrophosphate-dependent phosphofructokinase (PPiPFK from plants or bacteria EC 2.7.1.90) with fructose-6-phosphate and in the presence of fructose-2,6-diphosphate to make fructose-1,6-diphosphates. This product is cleaved with an aldolase to form dihydroxyacetone phosphate (DHAP) and glycerin-3-phosphate (GAP). From glycerinaldehyde-3-phosphate, dihydroxyacetone phosphate is produced with the triose phosphate isomerase. Finally, dihydroxyacetone phosphate is reduced with glycerin-3-phosphate dehydrogenase to glycerin-3-phosphate (G-3-P) with NADH. 2 mol of NADH are used per mol of pyrophosphate; this consumption can be monitored by photometry.
3) Influence of GDP-mannose on the synthesis
The concentration of GTP was varied between 0.08mM and 6 mm.
The GDP-mannose was used at 0μM, 50 μM, and 100 μM in the test. […]
(§8) The total volume was 200 μL. The preparations were measured in a Titertek photometer molecular device, Munich, by photometry. […]

[4] = biological target: Salmonella enterica group B (formerly Salmonella typhimurium LT2) GDP-mannose pyrophosphorylase (rfb M, EC 2.7.7.13), recombinant from E. coli BL21(DE3)pLysSpER (Salmonella typhimurium, UniProt P26404)
Method: as §6, §1

[5] = test system: pyrophosphorylases in rice (Oryza sativa L.) raw extract; assay: NUSSA screening of pyrophosphorylases in rice raw extract; assay type: biochemical
Method: as §1
2) Example: Use of NUSSA for screening pyrophoshorylases in two different enzyme sources: b) Rice (Oryza sativa L.)
as §2, §3, §4, §5

[6] = test system: Nc1nc2c(ncn2[C@@H]2O[C@H](COP(=O)(O)OP(=O)(O)OP(=O)(O)O)[C@@H](O)[C@H]2O)c(=O)[nH]1; assay: purified protein, by the assay type; settings: other: GTP 0.01-10 mM, mannose-1-phosphate constant 0.08 mM, NUSSA, Tris-HCl pH 8
From the text: as §7
The enzyme test (Nucleotidyl transferase substrate screening assay ‘NUSSA’) is based on the fact that in the nucleotidyl transferase reaction (EC 2.7-7), pyrophosphate is produced with a pyrophosphate-dependent phosphofructokinase (PPiPFK from plants or bacteria EC 2.7.1.90) with fructose-6-phosphate and in the presence of fructose-2,6-diphosphate to make fructose-1,6-diphosphates. This product is cleaved with an aldolase to form dihydroxyacetone phosphate (DHAP) and glycerin-3-phosphate (GAP). From glycerinaldehyde-3-phosphate, dihydroxyacetone phosphate is produced with the triose phosphate isomerase. Finally, dihydroxyacetone phosphate is reduced with glycerin-3-phosphate dehydrogenase to glycerin-3-phosphate (G-3-P) with NADH. 2 mol of NADH are used per mol of pyrophosphate; this consumption can be monitored by photometry. [drawing 3]
GTP was used at concentrations of 0.01-10 mM (FIG. 7). […]
as §8

[7] = test system: O=P(O)(O)O[C@H]1O[C@H](CO)[C@@H](O)[C@H](O)[C@@H]1O; assay: purified protein, by the assay type; settings: other: mannose-1-phosphate 0.002-0.6 mM, GTP constant 2 mM, NUSSA, Tris-HCl pH 8
[8] = literature, cited from earlier work
[9] = NTP 1 mM with α-D-glucose-1-phosphate 2.5 mM
[10] = α-D-sugar-1-phosphate 2.5 mM with GTP 1 mM
[11] = NTP 1 mM with α-D-glucose-1-phosphate 2.5 mM, 1.06 μg/mL-0.14 mg/mL raw extract
[12] = α-D-sugar-1-phosphate 2.5 mM with UTP 1 mM

T1 sequence (P26404 whole entry): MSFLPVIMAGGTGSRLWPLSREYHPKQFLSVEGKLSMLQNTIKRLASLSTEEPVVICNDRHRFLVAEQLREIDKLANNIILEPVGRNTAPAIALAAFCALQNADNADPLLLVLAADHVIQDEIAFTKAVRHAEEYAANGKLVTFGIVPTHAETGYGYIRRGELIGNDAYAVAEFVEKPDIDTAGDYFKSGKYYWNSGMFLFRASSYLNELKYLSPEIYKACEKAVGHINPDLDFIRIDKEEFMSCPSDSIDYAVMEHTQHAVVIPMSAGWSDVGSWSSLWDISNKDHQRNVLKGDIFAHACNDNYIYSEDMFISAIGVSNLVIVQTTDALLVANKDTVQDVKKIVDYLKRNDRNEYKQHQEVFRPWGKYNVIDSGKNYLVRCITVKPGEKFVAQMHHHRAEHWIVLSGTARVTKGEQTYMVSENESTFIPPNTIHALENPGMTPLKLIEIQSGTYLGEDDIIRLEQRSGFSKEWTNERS
Salmonella enterica group B (formerly Salmonella typhimurium LT2) GDP-mannose pyrophosphorylase (rfb M, EC 2.7.7.13), recombinant from E. coli BL21(DE3)pLysSpERJ-1, sequence (P26404 whole entry): as above
Salmonella enterica group B (formerly Salmonella typhimurium LT2) GDP-mannose pyrophosphorylase (rfb M, EC 2.7.7.13), recombinant from E. coli BL21(DE3)pLysSpER, sequence (P26404 whole entry): as above

Nc1ncnc2c1ncn2[C@@H]1O[C@H](COP(=O)(O)OP(=O)(O)OP(=O)(O)O)[C@@H](O)[C@H]1O [ATP]
Specific activity of pyrophosphorylases, E. coli [1, 9]: 2.76 mU/mg

Nc1ccn([C@@H]2O[C@H](COP(=O)(O)OP(=O)(O)OP(=O)(O)O)[C@@H](O)[C@H]2O)c(=O)n1 [CTP]
Specific activity of pyrophosphorylases, E. coli [1, 9]: 0.75 mU/mg

Nc1nc2c(ncn2[C@@H]2O[C@H](COP(=O)(O)OP(=O)(O)O[C@H]3O[C@H](CO)[C@@H](O)[C@H](O)[C@@H]3O)[C@@H](O)[C@H]2O)c(=O)[nH]1 [GDP-mannose, GDP-alpha-D-mannose]
type of inhibition with respect to M-1-P ([2]; GTP constant 2 mM, M-1-P 0.003-0.3 mM): noncompetitive inhibition
type of inhibition with respect to GTP ([2]; M-1-P constant 0.08 mM, GTP 0.08-6 mM): competitive inhibition
Ki [3]: 14.9 µM
Ki ([3]; Ki value, noncompetitive inhibition with respect to M-1-P, mannose-1-phosphate 0.003-0.3 mM, GTP constant 2 mM, 5.67 μg/mL enzyme): 118 µM

Nc1nc2c(ncn2[C@@H]2O[C@H](COP(=O)(O)OP(=O)(O)OP(=O)(O)O)[C@@H](O)[C@H]2O)c(=O)[nH]1 [GTP]
kmax value [2]: 2.4 U/mg
kmax value (GTP) ([4]; pH 8): 2.4 U/mg

O=P(O)(O)O[C@H]1O[C@H](CO)[C@@H](O)[C@H](O)[C@@H]1O [M-1-P, mannose-1-phosphate]
kmax value [2]: 1.8 U/mg
Specific activity of pyrophosphorylases, E. coli [1, 10]: 3.41 mU/mg
Specific activity of pyrophosphorylases, rice [5, 10]: 1.51 mU/mg
kmax value (M-1-P) ([4]; vmax, mannose-1-phosphate 0.002-0.6 mM, GTP constant 2 mM, NUSSA, Tris-HCl pH 8): 1.8 U/mg

O=c1ccn([C@@H]2O[C@H](COP(=O)(O)OP(=O)(O)OP(=O)(O)O)[C@@H](O)[C@H]2O)c(=O)[nH]1 [UTP]
Specific activity of pyrophosphorylases, E. coli [1, 9]: 214.10 mU/mg
Specific activity of pyrophosphorylases, rice [5, 11]: 982.40 mU/mg

Cc1cn([C@H]2C[C@H](O)[C@@H](COP(=O)(O)OP(=O)(O)OP(=O)(O)O)O2)c(=O)[nH]c1=O [dTTP]
Specific activity of pyrophosphorylases, E. coli [1, 9]: 10.32 mU/mg
Specific activity of pyrophosphorylases, rice [5, 11]: 5.98 mU/mg

CC(=O)N[C@H]1[C@@H](OP(=O)(O)O)O[C@H](CO)[C@H](O)[C@@H]1O [α-D-GalNAc-1-P, N-acetylgalactosamine-1-P]
Specific activity of pyrophosphorylases, rice [5, 12]: 0.18 mU/mg

O=C(O)[C@H]1O[C@H](OP(=O)(O)O)[C@H](O)[C@@H](O)[C@H]1O [α-D-Galacrurons{overscore (a)}ure-1-P, α-D-Galacturonic acid-1-P]
Specific activity of pyrophosphorylases, E. coli [1, 12]: 3.66 mU/mg
Specific activity of pyrophosphorylases, rice [5, 12]: 2.94 mU/mg

N[C@H]1[C@@H](OP(=O)(O)O)O[C@H](CO)[C@H](O)[C@@H]1O [α-D-Galactosamin-1-P]
Specific activity of pyrophosphorylases, rice [5, 12]: 0.25 mU/mg

O=P(O)(O)O[C@H]1O[C@H](CO)[C@H](O)[C@H](O)[C@H]1O [α-D-Galactose-1-P]
Specific activity of pyrophosphorylases, E. coli [1, 12]: 1 mU/mg
Specific activity of pyrophosphorylases, rice [5, 12]: 10.41 mU/mg

CC(=O)N[C@H]1[C@@H](OP(=O)(O)O)O[C@H](CO)[C@@H](O)[C@@H]1O [α-D-GlcNAc-1, N-acetylglucosamine-1-P-]
Specific activity of pyrophosphorylases, E. coli [1, 12]: 2.02 mU/mg
Specific activity of pyrophosphorylases, rice [5, 12]: 0.27 mU/mg

N[C@H]1[C@H](OP(=O)(O)O)O[C@H](CO)[C@@H](O)[C@@H]1O [α-D-Glucosamin-1-P, α-D-Glucosamine-1-P]
Specific activity of pyrophosphorylases, E. coli [1, 12]: 2.75 mU/mg

O=C(O)[C@H]1O[C@H](OP(=O)(O)O)[C@H](O)[C@@H](O)[C@@H]1O [α-D-Glucurons{overscore (a)}ure-1-P, α-D-Glucuronic acid-1-P]
Specific activity of pyrophosphorylases, E. coli [1, 12]: 4.72 mU/mg
Specific activity of pyrophosphorylases, rice [5, 12]: 14.27 mU/mg

O=P(O)(O)O[C@H]1OC[C@@H](O)[C@H](O)[C@H]1O [α-D-Xylose-1-P]
Specific activity of pyrophosphorylases, rice [5, 12]: 0.42 mU/mg

Salmonella enterica group B (formerly Salmonella typhimurium LT2) GDP-mannose pyrophosphorylase (rfb M, EC 2.7.7.13), recombinant from E. coli BL21(DE3)pLysSpERJ-1 (Salmonella enterica subsp. enterica serovar Typhimurium str. LT2)
Km [6]: 0.2 mM mM
Km [7]: 0.01 mm mm

B1: Pseudomonas aeruginosa (Shinabarger et al 1991): Bifunctional GDP-Man-PP from Pseudomonas aeruginosa with phosphomannose isomerase and pyrophosphorylase activity (protein, UniProt P07874 1-481, looked up)
Alginate biosynthesis protein …: MIPVILSGGSGSRLWPLSRKQYPKQFLALTGDDTLFQQTIKRLAFDGMQAPLLVCNKEHRFIVQEQLEAQNLASQAILLEPFGRNTAPAVAIAAMKLVAEGRDELLLILPADHVIEDQRAFQQALALATNAAEKGEMVLFGIPASRPETGYGYIRASADAQLPEGVSRVQSFVEKPDEARAREFVAAGGYYWNSGMFLFRASRYLEELKKHDADIYDTCLLALERSQHDGDLVNIDAATFECCPDNSIDYAVMEKTSRACVVPLSAGWNDVGSWSSIWDVHAKDANGNVTKGDVLVHDSHNCLVHGNGKLVSVIGLEDIVVVETKDAMMIAHKDRVQDVKHVVKDLDAQGRSETQNHCEVYRPWGSYDSVDMGGRFQVKHITVKPGARLSLQMHHHRAEHWIVVSGTAQVTCDDKTFLLTENQSTYIPIASVHRLANPGKIPLEIIEVQSGSYLGEDDIERLEDVYGRTAEPALQVVAGSR
Specific activity after purification ([8]; after purification): 6.12 U/mg Protein
Specific activities Raw extract ([8]; raw extract): 0.397 U/mg Protein

Reference: patent publication US20030082752A1, “Enzymatic process for producing GDP-alpha-D-mannose, a GDP mannose pyrophosphorylase and phosphomannomutase suitable for that process, the extraction of the said enzymes, and an enzyme test” (priority 1995, published 2003)
